The values below come from patent US20070287630A1, “Moisturizing agent with nutrients” (DriWater, Inc., priority 2006, published 2007).

For this data set the following is noted: acetic acid acting as a preservative in the gel.

Structures are written as SMILES.

Turning to `CC(=O)O` [acetic acid], the “effect on gel degradation in soil” value is “slow gel degradion in soil”.
